Entries after “also recorded” stand apart in the source; their conditions may differ.
Experiments:
[1] = tested on: Gli1 mRNA; assay: Gli1 mRNA expression in tumor stroma (RT-PCR); assay type: in vivo, murine; conditions: animals receiving IPI-926 (40 mg/kg) compared to vehicle
From the text: In each of these cases, the action of IPI-926 coincides with downregulation of mRNA for Gli1, an important molecule in the Hedgehog signaling pathway, in the tumor stroma of experimental animals receiving IPI-926 (FIG. 12A). The downregulation of Gli1 mRNA can be used as a functional readout for inhibition of Hedgehog signaling. Moreover, in these models, it appears to be the cancer cells that express the ligand of the Hedgehog signaling pathway (FIG. 12B). Thus, without being bound by theory, Applicants believe that the tumor cells express Hedgehog ligand which signals to a tumor associated stromal cell.
RNA for analysis was isolated from cell pellets or tumor tissue using the Ambion RNA 4-PCR isolation kit according to the manufacturer's guidance. Reverse transcription-PCR was performed for human GAPDH, Gli l and SHh and murine GAPDH, Gli1, PECAM and RGS5 using an ABI-7300 system with ABI primer/probes. Relative quantification of the expression data was obtained using the ΔΔCT method as described by Applied Biosystems.

[2] = tested on: preclinical in vivo tumor models; conditions: medulloblastoma, SCLC, NSCLC, skin, head and neck, ovarian cancer; cited from earlier work

SMILES: CC1=C2C[C@H]3[C@@H](CC[C@@H]4C[C@H](NS(C)(=O)=O)CC[C@@]43C)[C@@H]2CC[C@@]2(C1)O[C@@H]1C[C@H](C)CN[C@H]1[C@H]2C [IPI-926]
- Gli1 mRNA expression in tumor stroma [1]: inhibition; also recorded: suppression; also recorded: downregulation
- tumor growth in preclinical in vivo models [2]: tumor growth inhibition
